{"source": "patent EP3570868B1", "about": "“[…] ANTIMICROBIAL PEPTIDES AND THEIR APPLICATIONS FOR THE TREATMENT AND PREVENTION OF MUSCU[…]” (Ustav Organicke Chemie a Biochemie AV CR, v.v.i., priority 2017, dated 2018)", "key": {"Bacillus subtilis": {"tested_on": "Bacillus subtilis", "format": "cell-based", "conditions": "B.s.; 37° C for 20 h", "how_it_was_run": "(§1)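 MIC, quantitative, from growth curves (A540 every 15 min, 20 h, 37 °C, continuous shaking). Inoculum ~10^5 CFU/well; peptide final 0.5–100 µmol.l^-1 in LB; E. faecalis pregrown in BHI, rest in LB. Tetracycline standard over same range.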"}, "Candida albicans": {"tested_on": "Candida albicans", "format": "cell-based", "conditions": "C.a.; 37° C for 20 h"}, "Escherichia coli": {"tested_on": "Escherichia coli", "format": "cell-based", "conditions": "E.c.; 37° C for 20 h", "how_it_was_run": "as §1"}, "[1]": {"tested_on": "MRSA (clin. isolate Liberec)", "format": "cell-based, Staphylococcus aureus", "conditions": "37° C for 20 h", "how_it_was_run": "as §1"}, "[2]": {"tested_on": "MRSA (clin. isolate Motol)", "format": "cell-based, Staphylococcus aureus", "conditions": "37° C for 20 h", "how_it_was_run": "(§2)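 Exponential-phase cultures, diluted in fresh medium (BHI for E. faecalis, LB for the others), were added to peptides in LB at final 0.5 to 100 µmol.l^-1, ca 10^5 CFU per well. Plates were shaken at 37 °C for 20 h with A540 read every 15 min; MIC was taken from growth.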"}, "MRSA 6271": {"tested_on": "MRSA 6271", "format": "cell-based, Staphylococcus aureus", "conditions": "37° C for 20 h", "how_it_was_run": "as §2"}, "[3]": {"tested_on": "S.e. (clin. isolate Motol)", "format": "cell-based, Staphylococcus epidermidis", "conditions": "37° C for 20 h", "how_it_was_run": "as §2"}, "[4]": {"tested_on": "E.f. (clin. isolate Motol)", "format": "cell-based, Enterococcus faecalis", "conditions": "37° C for 20 h", "how_it_was_run": "as §2"}, "[5]": {"tested_on": "P.a. (clin. isolate Liberec)", "format": "cell-based, Pseudomonas aeruginosa", "conditions": "37° C for 20 h", "how_it_was_run": "as §1"}, "P.a. 5482": {"tested_on": "P.a. 5482", "format": "cell-based, Pseudomonas aeruginosa", "conditions": "37° C for 20 h", "how_it_was_run": "as §2"}, "human red blood cells": {"tested_on": "human red blood cells", "assay": "Determination of haemolytic activity", "format": "cell-based", "conditions": "human red blood cells (5% v/v), 1 h at 37 °C; concentration for lysis of 50% of erythrocytes", "how_it_was_run": "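Peptides at 2-400 µmol.1^-1 were incubated with 5% v/v human erythrocytes in physiological solution for 1 h at 37 °C; haemoglobin release measured as supernatant absorbance at 540 nm after centrifugation, with 0.2% Triton X-100 as 100% lysis. Reported as LC50, the concentration lysing 50% of cells.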"}, "[6]": {"tested_on": "Candida albicans (clin. isolate Olomouc)", "assay": "Biofilm formation on the surface of a bone cement implant in femur heads", "format": "cell-based", "conditions": "two days, cement without peptide 8.0x10^4", "quoted_text": "(§3) The resulting elastic paste is placed into a 2 ml plastic syringe (without needle) and pressed into the infected holes in the spongy part of the bone, where it polymerizes and hardens. For comparison, other similarly infected holes are filled with cement containing only an antibiotic or antimycotic agent. For comparison, a Vancogenx® cement (Tecresa S. p. A., Italy) is used, made from a mixture of a powdered polymer component containing vancomycin and gentamicin. The mixture in an amount of 125 mg is mixed with liquid monomer (50-60 µl) and then pressed into the openings as described above. In another embodiment, the cements are applied to uninfected holes, allowed to harden, and then microbes are pipetted into the hole excavated between implants. From there they penetrate through bone tissue and settle on the implants with consequent formation of biofilms.\nAfter two days, implants are removed with metal spikes and tweezers, mechanically cleaned from debris of bone tissue, and washed four times with physiological saline (0.5 ml) in plastic tubes to remove any residual planktonic microbes or bone cells from their surface. The implants in closed tubes with 0.4 ml saline are then sonicated four times for 3 min with occasional shaking. The of microbial biofilm on the surface of the implant is thus disrupted and microbes are loosed into the physiological saline. The resulting suspension is subsequently diluted using the tenfold serial dilution for culturing on agar.\nEvaluation of the effect of antimicrobial peptides on the formation of microbial biofilm on the surface of the implant made of the bone cement."}, "[7]": {"tested_on": "Candida albicans ATCC MYA-2876", "assay": "Biofilm formation on the surface of a bone cement implant in femur heads", "format": "cell-based", "conditions": "two days, cement without peptide 4.4x10^5", "quoted_text": "The resulting elastic paste is placed into a 2 ml plastic syringe (without needle) and pressed into the infected holes in the spongy part of the bone, where it polymerizes and hardens. For comparison, other similarly infected holes are filled with cement containing only an antibiotic or antimycotic agent. […] The mixture in an amount of 125 mg is mixed with liquid monomer (50-60 µl) and then pressed into the openings as described above. In another embodiment, the cements are applied to uninfected holes, allowed to harden, and then microbes are pipetted into the hole excavated between implants. From there they penetrate through bone tissue and settle on the implants with consequent formation of biofilms.\nAfter two days, implants are removed with metal spikes and tweezers, mechanically cleaned from debris of bone tissue, and washed four times with physiological saline (0.5 ml) in plastic tubes to remove any residual planktonic microbes or bone cells from their surface. The implants in closed tubes with 0.4 ml saline are then sonicated four times for 3 min with occasional shaking. The of microbial biofilm on the surface of the implant is thus disrupted and microbes are loosed into the physiological saline. The resulting suspension is subsequently diluted using the tenfold serial dilution for culturing on agar. […]"}, "Candida glabrata DSY565": {"tested_on": "Candida glabrata DSY565", "assay": "Biofilm formation on the surface of a bone cement implant in femur heads", "format": "cell-based", "conditions": "two days, cement without peptide 1.3x10^6", "quoted_text": "as §3\nAfter two days, implants are removed with metal spikes and tweezers, mechanically cleaned from debris of bone tissue, and washed four times with physiological saline (0.5 ml) in plastic tubes to remove any residual planktonic microbes or bone cells from their surface. The implants in closed tubes with 0.4 ml saline are then sonicated four times for 3 min with occasional shaking. The of microbial biofilm on the surface of the implant is thus disrupted and microbes are loosed into the physiological saline. […]"}, "[8]": {"tested_on": "Candida albicans yeast (clinical isolate Olomouc)", "assay": "Comparison of two similar halictin peptides for biofilm formation on the implant surface (yeast pipetted into a hole between implants)", "format": "cell-based", "conditions": "3.5 mg peptide in 100 mg powder cement component; two days; implant without peptide 1.8 × 10^3", "description": "The experiment was performed under similar conditions as described in Example 5. Here, 100 mg of the powder cement component was used to prepare a paste, which was mixed with in 3.5 mg of peptide XIII and subsequently 52 µl of liquid component. The resulting paste was thoroughly mixed and then pressed into a hole prepared in the spongy part of the bone. To a next hole in the spongy part of the same bone a paste was pressed, containing comparative peptide Hal 2/4 (3.5 mg) with the sequence H-[…]NH2, which was also prepared from 100 mg of the powder component and 52 µl of the liquid component. The third hole was filled with paste without peptide prepared from the same amount of components. The Candida albicans yeast (clinical isolate Olomouc), grown in YPG, was pipetted in the hole excavated between implants equidistant (approximately 1 cm) from each. From there, the yeast penetrated through the bone tissue and was deposited on the implant with consequent formation of biofilms.\nThen the implants in closed tubes with 0.4 ml of saline were treated ultrasonically four times for three minutes with occasional shaking. This way, microbial biofilm on the surface of the implant was disrupted and microbes loosed into the physiological saline. The resulting suspension was then diluted in a decimal dilution series for culturing on agar. […]"}}}
{"compound": "CC[C@H](C)[C@H](NC(=O)[C@H](CCCCN)NC(=O)[C@H](CCCCN)NC(=O)[C@@H](CC(C)C)NC(=O)[C@H](CC(C)C)NC(=O)[C@H](CCCCN)NC(=O)[C@H](CCSC)NC(=O)[C@H](Cc1c[nH]c2ccccc12)NC(=O)[C@H](CCCCN)NC(=O)CN)C(=O)N[C@@H](CC(C)C)C(=O)N[C@@H](CCCCN)C(N)=O", "note": "[XIII]", "values": [{"measurement": "Antimicrobial activity MIC", "setting": "Bacillus subtilis", "result": "2,8 µmol.l^-1"}, {"measurement": "Antimicrobial activity MIC", "setting": "Candida albicans", "result": "8,0 µmol.l^-1"}, {"measurement": "Antimicrobial activity MIC", "setting": "Escherichia coli", "result": "10,0 µmol.l^-1"}, {"measurement": "Antimicrobial activity MIC", "setting": "[1]", "result": "13,3 µmol.l^-1"}, {"measurement": "Antimicrobial activity MIC", "setting": "[2]", "result": "32,0 µmol.l^-1"}, {"measurement": "Antimicrobial activity MIC", "setting": "MRSA 6271", "result": "18,7 µmol.l^-1"}, {"measurement": "Antimicrobial activity MIC", "setting": "[3]", "result": "4,0 µmol.l^-1"}, {"measurement": "Antimicrobial activity MIC", "setting": "[4]", "result": ">100", "unit": "µM"}, {"measurement": "Antimicrobial activity MIC", "setting": "[5]", "result": "32,0 µmol.l^-1"}, {"measurement": "Antimicrobial activity MIC", "setting": "P.a. 5482", "result": "5,0 µmol.l^-1"}, {"measurement": "Hemolytic activity LC50", "setting": "human red blood cells", "result": ">400", "unit": "µM"}, {"measurement": "CFU/implant", "setting": "[6]", "result": 0, "unit": "CFU/implant"}, {"measurement": "CFU/implant", "setting": "[7]", "result": "6.0x10^3 CFU/implant"}, {"measurement": "CFU/implant", "setting": "Candida glabrata DSY565", "result": "2.4x10^3 CFU/implant"}, {"measurement": "number of colonies from the surface of the implant", "setting": "[8]", "result": "zero"}]}
